{"source": "patent US20100317699A1", "about": "“USE OF HEDGEHOG AGONISTS IN THE TREATMENT OF MUSCULOSKELETAL-RELATED DISORDERS” (NOVARTIS AG, priority 2008, published 2010)", "key": {"isolated satellite cells": {"system": "isolated satellite cells", "test": "Isolated satellite cell proliferation, total cell number and BrdU incorporation", "assay_type": "cell-based, mouse", "conditions": "48 hr treatment, versus vehicle", "procedure": "(§1) Cells. TM3 and C2C12 cells were obtained from ATCC, propagated according to manufacturer's instructions, and maintained at subconfluence. Both primary myoblasts and isolated satellite cells were grown in Ham's F10 media supplemented with 20% Fetal calf serum and 1% Penicillin/Streptomycin without βFGF. All cells were plated on pre-coated collagen dishes (MatTek) or on plastic culture plates treated with rat tail collagen type I (BD).\nMyoblast and Satellite cell isolation. Primary mouse myoblasts were isolated from mouse hind-limb muscles as described herein. Muscle satellite cells were isolated from hind-limb muscles of 4-6 week old C57BL/6J mice. Muscles were dissected and finely chopped with razor blades in DMEM. Chopped muscles were placed in a 50 mL Falcon tube with 30 mL of dissociation solution (0.1% Collagenase D, 0.25% Trypsin in DMEM) and agitated at 37° for 20 minutes. Following dissociation, 500 μl of fetal calf serum was added to block Trypsin activity and samples were passed through a 37 μM filter. Solutions were diluted two-fold in DMEM, passed through a […] filter, centrifuged at 1000 RPM for 15 minutes, and the subsequent pellet was re-suspended in 1% FCS/PBS. […]\n(§2) BrdU treatment. […] Three random images from four replicate experiments were analyzed for total cell (Dapi) and BrdU+ cell number. […]"}, "DMD^MDX mice": {"system": "DMD^MDX mice", "test": "Intramuscular injection into DMD MDX mouse skeletal muscle, BrdU/Pax7 staining", "assay_type": "in vivo", "conditions": "500 μM IM once per day for two days", "procedure": "(§3) FIG. 3 is a graphic depiction of the design of in vivo experiments, further detailed herein. 6 to 8-week old wildtype (WT), DMD^MDX, or WT cardiotoxin-injured mice (Ctx-inj) received two consecutive bilateral IM injections of either vehicle (10% DMSO/PBS), or Shh-Ag (500 μM) into tibialis anterior (TA) or gastrocnemius (GA) muscles, followed by an IP injection of BrdU. Mice were sacrificed and muscles were then collected 3 or 7 days following ctx-injury for immunostaining (TA) or FACS analysis (GA); n=4 for all groups.\n(§4) Mice. All mouse protocols were approved by the Animal Care and Use Committee of Novartis Institutes for BioMedical Research. Wild-type (C57BL/6J) and C57BL/10 DMD^MDX mice were obtained from Jackson Labs. All analyses were performed on male mice approximately 6-8 weeks of age.\n(§5) Shh-Ag treatment. 20 μl (TA) or 50 μl (GA) of vehicle (10% DMSO/PBS) or 500 μM Shh-Ag was injected into the respective tibialis anterior or gastrocnemius muscles once per day for two consecutive days.\nas §2\n(§6) Immunostaining. […] Images were obtained using an ScanScope XT scanner and analyzed using Aperio ImageScope 6.25 software (Aperio Technologies). […]"}, "Gli1 [1]": {"system": "Gli1", "test": "Gli1 protein levels, Western blot densitometry", "assay_type": "cell-based", "conditions": "rSHH 1 μg/mL; densitometric scores relative to vehicle=100", "procedure": "(§7) Protein expression. For details of protein extraction and analysis, please see Supplementary Methods online. Antibodies used for Western are rabbit polyclonal antibodies against Gli1, total Akt, phosphorylated Akt-Ser473 (Cell Signaling) and Cyclin D1 (Abeam).\n(§8) Protein Expression. Cells were collected in lysis buffer (20 mM Tris, pH 7.5, 150 mM NaCl, 1 mM EDTA, 1 mM EGTA, 1% Nonidet NP-40, 1 mM β-glycerol phosphate, 1 mM Na3VO4, 1 μg/ml leupeptin, and 1 mM PMSF) and measured for protein concentration with a BCA protein assay kit (Pierce). Electrophoretic separation was performed utilizing 20-60 μg of protein on 4-12% mini-gels (Invitrogen). Proteins were transferred to a PVDF membrane, blocked in 5% blotto [5% powdered milk in TBST (Tris-buffered saline, 1% Tween 20)] for 1 hr followed by an overnight incubation at 4° C. with primary antibody. After overnight incubation, membranes were washed for 30 min in TBST and then probed with anti-rabbit antibody for 45 min at room temperature. After another 30 min of washing in TBST, the blots were developed with ECL. Once the appropriate image was captured, membranes were stained with Coomassie blue to verify equal loading in all lanes. Densitometric measurements were carried out using AlphaEase software (Alpha Innotech)."}, "Gli1 [2]": {"system": "Gli1", "test": "Gli1 mRNA levels in myotubes", "assay_type": "cell-based", "conditions": "10 μM, 24 hours"}, "[3]": {"system": "WT cardiotoxin-injured mice", "test": "Cardiotoxin-induced muscle injury and regeneration in WT mice, staining and FACS analysis", "assay_type": "in vivo, mouse", "procedure": "as §3, §4\nCardiotoxin-induced regeneration. Muscle regeneration was induced by injecting 40 μl (TA) or 100 μl (GA) of cardiotoxin (10 μM Naja atra; Sigma) into the respective tibialis anterior or gastrocnemius muscles of WT C57BL/6J mice.\nas §5\nBrdU treatment. For treatment of isolated SCs, a 1:100 dilution of 5-bromodeoxyuridine (BrdU) labeling reagent (10 mg/mL; Invitrogen) was added to the culture media 24 hours following vehicle or Shh-Ag treatment. Cells were then incubated an additional 5 hours, fixed, probed for BrdU, mounted with Dapi containing medium (Vector Labs), and then imaged as described in Materials in Methods. Three random images from four replicate experiments were analyzed for total cell (Dapi) and BrdU+ cell number. For in vivo delivery, 100 μl of BrdU was intraperitoneally (IP) injected following the second vehicle or Shh-Ag intramuscular injection.\nFACS analysis. The following antibodies were used in this study: APC-conjugated anti-CD45 (BD), PE-conjugated anti-Syndecan 4 (BD), and FITC-conjugated anti-BrdU (BioVision). Muscles from treated mice were dissected and dissociated as described. To sort satellite cells for further experimentation, […] anti-syndecan 4 was utilized to positively select cells following ARIA (BD) mediated cell sorting. […]\nas §6\nTo quantify the induction of SC proliferation, ctx-injured and Shh-Ag treated muscle samples (GA) were collected and processed for FACS analysis. A single-cell muscle suspension was gated based on CD45− and Syndecan4+ expression, commonly used identifiers of muscle SCs, and the resultant population was then analyzed for intracellular BrdU localization (see, e.g., FIG. 4). […]"}, "Cyclin D1 [4]": {"system": "Cyclin D1", "test": "Cyclin D1 mRNA expression in isolated SCs", "assay_type": "cell-based", "procedure": "(§9) RNA and qRT-PCR. For analysis of gene expression, cells were treated with vehicle (DMSO) or 10 nM Shh-Ag for 24 hours. Total RNA was isolated with RNEasy Miniprep Kit (Qiagen), DNAse treated (RQ1, Promega) and reverse transcribed (iScript, Biorad) according to manufacturers instructions. Quantitative PCR was performed using Taqman Gene Expression Assays (Applied Biosystems) in an ABI7500 Fast system as per manufacturer's instructions. Gene expression changes were calculated using the comparative ΔΔCT method.\nMyoblast and Satellite cell isolation. Primary mouse myoblasts were isolated from mouse hind-limb muscles as described herein. Muscle satellite cells were isolated from hind-limb muscles of 4-6 week old C57BL/6J mice. Muscles were dissected and finely chopped with razor blades in DMEM. Chopped muscles were placed in a 50 mL Falcon tube with 30 mL of dissociation solution (0.1% Collagenase D, 0.25% Trypsin in DMEM) and agitated at 37° for 20 minutes. Following dissociation, 500 μl of fetal calf serum was added to block Trypsin activity and samples were passed through a 37 μM filter. Solutions were diluted two-fold in DMEM, passed through a […] filter, centrifuged at 1000 RPM for 15 minutes, and the subsequent pellet was re-suspended in 1% FCS/PBS. Syndecan 4 positive satellite cells were then isolated by fluorescent activated cell sorting (FACS) utilizing an ARIA-UV cell sorter (BD)."}, "Cyclin D1 [5]": {"system": "Cyclin D1", "test": "Cyclin D1 mRNA expression in myoblasts", "assay_type": "cell-based", "procedure": "as §9"}, "wild-type (WT) mice": {"system": "wild-type (WT) mice", "test": "Intramuscular injection into wild-type mouse skeletal muscle, BrdU/Pax7 staining", "assay_type": "in vivo", "conditions": "500 μM IM once per day for two days", "procedure": "as §3, §4, §5, §2, §6"}, "Cyclin D1 [6]": {"system": "Cyclin D1", "test": "Cyclin D1 protein levels, Western blot densitometry", "assay_type": "cell-based", "conditions": "rSHH 1 μg/mL; densitometric scores relative to vehicle=100", "procedure": "as §7, §8"}, "primary myoblasts": {"system": "primary myoblasts", "test": "Primary myoblast proliferation, PI staining and FACS analysis", "assay_type": "cell-based, mouse", "procedure": "as §1\nMyoblast isolation. Two to three week-old male C57/BL/6J pups were used for the experiments. The mice were euthanized using CO2. Then the skin and fascia from the ankle joint up toward the hip were peeled to expose underlying muscles. The muscles (hamstring, quadriceps, tibialis anterior, extensor digitorum longus, gastrocnemius and soleus) from both legs were carefully removed, trying to any tendons and non-muscle tissues. The dissected muscles were placed in a sterile […] containing PBS and washed to remove hair and other debris. The muscles were then transferred to a sterile 35 mm^2 dish and 1.5 ml of a collagenase/dispase solution was added to digest the tissues. The tissues were mulched into a reasonably smooth pulp using sterile disposable followed by incubating at 37° C. for 12 min. They were then triturated using 5 ml plastic pipettes to homogenize the mixture. The incubation and triturating step was repeated once more. […]"}}, "note": "“And” between values parts separate entries of the source, which are not always exact repeats. Identical values can stand only once. “Also recorded” adds a separate entry of the source."}
{"molecule": "CNC1CCC(N(Cc2cccc(-c3ccncc3)c2)C(=O)c2sc3c(F)ccc(F)c3c2Cl)CC1", "note": "(stereo not drawn) [Shh-Ag]", "values": [{"measurement": "increase in the percentage of SCs incorporating BrdU", "setting": "isolated satellite cells", "value": "two fold increase"}, {"measurement": "mononuclear cell infiltration (BrdU+ staining)", "setting": "DMD^MDX mice", "value": "seemed to promote even greater mononuclear cell infiltration"}, {"measurement": "number of Pax7−/BrdU+ cells", "setting": "DMD^MDX mice", "value": "greatly increased"}, {"measurement": "Gli1 protein levels", "setting": "Gli1 [1]", "value": "induction; also recorded: increase"}, {"measurement": "Gli1 mRNA levels, fold increase", "setting": "Gli1 [2]", "value": "over 20 fold"}, {"measurement": "BrdU+, centrally-aligned nuclei in longitudinal muscle sections", "setting": "[3]; 7 days following ctx-injury", "value": "increase in BrdU+, centrally-aligned nuclei"}, {"measurement": "percent of proliferating (BrdU+) SCs", "setting": "[3]; ctx-injured GA muscle, FACS, vehicle 4.82±0.33", "value": "10.67±1.87% and 10.6%"}, {"measurement": "percentage of Pax7 expressing SCs that are Pax7+/BrdU+ double positive", "setting": "[3]; ctx-injured WT muscle, compared to vehicle control", "value": "larger percentage"}, {"measurement": "number of BrdU+ cells at an early stage of regeneration", "setting": "[3]; single cardiotoxin injury, WT mice, 500 μM IM", "value": "significantly increase"}, {"measurement": "increase in Cyclin D1 mRNA expression", "setting": "Cyclin D1 [4]", "value": "more than 50%"}, {"measurement": "increase in Cyclin D1 mRNA expression", "setting": "Cyclin D1 [5]", "value": "more than 50%"}, {"measurement": "Pax7/BrdU fluorescent co-staining of muscle sections", "setting": "wild-type (WT) mice", "value": "Pax7+/BrdU+ double positive cells were easily seen"}, {"measurement": "BrdU staining of muscle sections", "setting": "wild-type (WT) mice; vehicle sections negative", "value": "displayed BrdU+ precursor cells"}, {"measurement": "Cyclin D1 protein levels", "setting": "Cyclin D1 [6]", "value": "elevated protein expression; also recorded: increase"}]}
{"molecule": "IGF-1: Insulin-like growth factor I, a known skeletal muscle mitogen signaling through PI3K/Akt", "values": [{"measurement": "myoblast proliferation on co-treatment of Shh-Ag with IGF-1", "setting": "primary myoblasts", "value": "did not significantly increase"}]}
